Assay results: patent US5783556A, “Formulated insulin-containing composition” (Genentech, Inc., priority 1996, dated 1998)

Legend:
[1] = Mixing one volume of human insulin with an equal volume of IGF-I: pH, color and appearance; assay type: physicochemical
From the text: One volume of human insulin was mixed with an equal volume of IGF-I using the following procedure:
1) Draw air into syringe equal to the amount of human insulin for mixing. Insert the needle into the human insulin bottle and inject air. Withdraw the needle.
3) Turn the bottle and syringe upside down.
4) Make sure the tip of the needle is in the IGF-I, withdraw the correct dose of IGF-I into the syringe.
5) Before removing the needle from the bottle, check the syringe for air bubbles which reduce the amount of IGF-I in it. If bubbles are present, hold the syringe straight up and tap its sides until the bubbles float to the top. Push them out with the plunger and withdraw the correct dose.
6) Remove the needle from the bottle of IGF-I and insert it into the bottle of human insulin. Turn the bottle and syringe upside down. Hold the bottle and syringe firmly in one hand and shake gently (no shaking for regular human insulin). Make sure the tip of the needle is in the insulin, withdraw the dose of human insulin.

[2] = Acidic pH reversed-phase HPLC of centrifuged and filtered insulin, IGF-I and insulin/IGF-I mixtures; assay type: physicochemical
Method: Human insulin was gently inverted several times to mix the suspension. Approximately 1 mL of sample was withdrawn into an insulin syringe. The insulin was discharged into a centrifuge tube, then centrifuged at 3000 r.p.m. for 10 minutes. The centrifuge step was designed to remove human insulin suspension from solution. After centrifugation, the insulin sample was filtered through a 0.22 μm filter to further remove human insulin suspension. After filtration the solution was analyzed by using the acidic pH reversed-phase HPLC method described below: […]
solvent A: 0.1% trifluoroacetic acid solvent B: 0.1% trifluoroacetic acid in acetonitrile […]
column temperature: 50° C. […]
injection volume: 25 μg/injection
This solution was analyzed by the above HPLC method with no sample preparation step.
IGF-I was diluted to 1 mg/mL using IGF-I placebo. The diluted sample was analyzed by the above HPLC method.
Human insulin was mixed with IGF-I in an insulin syringe using the mixing method described above. Immediately after mixing, the mixture was injected into a centrifuge tube, then gently vortexed for 1-2 seconds. After vortexing, the mixture was centrifuged at 3000 r.p.m. for 10 minutes, then filtered through a 0.22 μm filter to remove human insulin suspension. The filtered sample was then analyzed by the acidic pH reversed-phase HPLC method described above.

STZ diabetic rats = experiment: Plasma glucose after SC injection in STZ diabetic rats (Studies 1-3); assay type: in vivo, rat
Method: Forty 7-8 week-old male SD rats were received from Charles River Laboratories and one day later injected with STZ 75 mg/kg IP. Five days later rats were bled via a tail vein, serum was obtained, and glucose concentration measured. All animals with blood glucose <200 mg/dL were not considered diabetic and were removed from the study. […] The right jugular vein was then isolated through a small SC incision and cannulated using a 0.02 inch×0.037 inch beveled silicon rubber-tipped cannula. Cannulas were flushed and checked for patency using heparin (10 U/mL) before closing wounds using 4-0 silk suture thread. Cannulas were "heparin locked" using ~50 μl heparin (100 U/mL) just before the animals were placed on a heated pad for recovery. Rats were placed in their vivarium cage when ambulatory.
The cannulas were flushed daily with fresh heparin/saline to maintain patency. Two days after cannulation, Study 1 (see below) was performed and two days later, Study 2. […]
Plasma glucose concentrations were measured using a Chem 1A serum chemistry analyzer (Miles Laboratories, Tarrytown, N.Y.). Insulin in plasma was measured by rat-specific radioimmunoassay (RIA) (Linco Research Inc., St. Charles, Mo.). Plasma IGF-I was measured by RIA after acid-ethanol extraction of the samples. […]

patients with IDDM [3] = experiment: Four-week randomized placebo-controlled double-blind study of rhIGF-I plus insulin in IDDM: glycemic control and insulin usage; assay type: in vivo, human
From the text: Forty-three patients (22 males and 21 females) with IDDM, ages 8-17 years, were recruited at three university-based diabetes clinics. The eligibility criteria were as follows:
The study design included a 4-week lead-in period, a 4-week treatment period, and a 2-week wash-out period (FIG. 13). Throughout the study the patients continued to receive two injections of regular and NPH insulin daily. At study entry the patients were provided with detailed instructions on home blood glucose (BG) monitoring technique. They were instructed to test BG before breakfast, lunch, dinner, and the evening snack as well as any times of symptomatic hypoglycemia. The glucose values were automatically stored in the meter (One Touch II--Lifescan Inc., Milpitas, Calif.) and electronically transferred to a personal computer at the study site during each clinic visit. During the lead-in period the patients were counseled weekly on general diabetes care and dietary management (day -28 and -14 at the clinic, day -21 and -7 over the phone). During this period the patients were provided with specific goals of glycemic control and were instructed to call the study sites as often as needed for assistance with insulin adjustment.
(§1) At the end of the lead-in period the patients were randomized to administer either rhIGF-I or placebo as an additional injection immediately before their morning insulin injections. Patients were allocated using an adaptive randomization procedure that stratified based on Tanner stage and the glycosylated hemoglobin value on day -28 of the lead-in period. A seven-day window period was allowed between day -1 of the lead-in period and day 1 of the treatment period. The subjects were admitted to the hospital the afternoon preceding day 1 of treatment and received their usual insulin dose and diet. On day 1, an IV cannula was inserted into the distal forearm or antecubital fossa. A single dose of rhIGF-I (80 μg/kg) or placebo was administered SC, followed by a SC insulin injection and breakfast. The dosing of IGF-I in the morning was for safety reasons. On day 1, the a.m. regular insulin dose was reduced by 1/3in both groups as a precaution against the development of hypoglycemia. Blood samples were obtained for future assay every 15 minutes for the next 3 hours. The patients were encouraged to be active and exercise after the initial 3-hour sampling period. Discharge from the hospital occurred on day 3 or 4 of treatment. The patients were then contacted by phone on day 5 and seen as outpatients on days 7, 14, 21, and 28 of treatment and 14 days after the cessation of dosing. The patients were instructed on dietary and diabetes management at each follow-up appointment.
For the entire four-week treatment period, the rhIGF-I and placebo doses remained constant (80 μg/kg SC q a.m.). However, the insulin doses were adjusted in an attempt to achieve the following BG targets: fasting blood glucose (FBG) 80-120 mg/dl (4.4-6.7 mmol/L) for age greater than 12 years and 80-140 mg/dL (4.4-7.8 mmol/L) for age lower than 12 years; 80-180 mg/dL (4.4-10.0 mmol/L) at any other time. A physical exam was performed on day -28 of the lead-in period, on days 1, 7, 21 and 28 of the treatment period, and on day 14 of the wash-out period. The treatment period was followed by a two-week wash-out period, during which the patients remained on insulin therapy only and dose adjustments continued as necessary to meet the glycemic goals.
The primary indices of glycemic control were: 1) HbA1 was measured at day -28 of the lead-in, as well as at days 1 and 28 of the treatment; 2) the average of the four daily home glucose monitoring values over the last ten days of the lead-in period was compared to the last ten days of treatment. The glycosylated hemoglobin was assayed by affinity chromatography (SmithKline Beecham Clinical Laboratories). The reference range was 4.4-6.1%.
Patients with at least two weeks of post randomization data were included in the analysis. […]

[4] = Plasma total and free IGF-I levels in the IDDM clinical study; assay type: in vivo, human; conditions: 2-4 hours after rhIGF-I injection
From the text: as §1, with “The patients were encouraged to be active and exercise after the initial 3-hour sampling period. Discharge from the hospital occurred on day 3 or 4 of treatment. The patients were then contacted by phone on day 5 and seen as outpatients on days 7, 14, 21, and 28 of treatment and 14 days after the cessation of dosing. The patients were instructed on dietary and diabetes management at each follow-up appointment.” left out
Plasma levels of GH, IGF-I, free IGF-I, IGF-II, IGFBP-1, IGFBP-2, and IGFBP-3 were measured. […] Total plasma IGF-I concentrations were determined by radioimmunoassay (RIA) following acid-ethanol extraction as described by Lieberman et al., supra. […]

patients with IDDM [5] = experiment: Safety assessments in the IDDM clinical study (hypoglycemia, laboratory profiles, body weight); assay type: in vivo, human
Method: The primary safety laboratory evaluations were serum biochemical and thyroid profiles, CBC, urinalysis, 24-hour urinary albumin excretion rate and creatinine clearance. Hypoglycemia was defined by a BG level equal to or lower than 50 mg/dL with or without symptomatology. This definition of hypoglycemia was used for purposes of statistical analysis.
Patients with at least two weeks of post randomization data were included in the analysis. […] The data are summarized by mean±SE for each group. Comparisons between the two groups were performed using the Wilcoxon rank sum test for continuous variables and Fisher's exact test for discrete data. All tests were two-tailed and a p-value less than or equal to 0.05 was considered statistically significant.

[6] = last 10 days of treatment period, Mean ± SEM

Which “Color and Appearance Before Mixing” value [1] does the source give for “IGF-I: rhIGF-I (Genentech): 10 mg/mL IGF-I, 5.84 mg/mL NaCl, 9.0 mg/mL benzyl alcohol, 2.0 mg/mL polysorbate 20, 50 mM sodium acetate, pH 5.4” here?
Its value is “colorless, clear”.

What about the “pH Before Mixing” value [1] of the same substance?
Its value is 5.4.

And the “IGF-I intact and unoxidized” value ([2]; IGF-I formulation alone, FIG. 1C)?
Its value is “approximately 99%”.

What about the IGF-I precipitated ([2]; immediately after mixing with HUMULIN R) of the same substance?
Its IGF-I precipitated is about 25%.

What about the “blood glucose levels after 6 hours” value (STZ diabetic rats; Study 1, 6 hours after SC injection) of the same substance?
Its value is “returned to basal values”.

And the blood glucose levels (STZ diabetic rats; Study 1, twenty minutes post-injection, SC, rhIGF-I 500 μg and/or NPH insulin 5U)?
Its blood glucose levels is 218.3±38.1 mg %.

What about the “average number of NPH units used per kg body weight” value (patients with IDDM [3]; during treatment) of the same substance?
The value was 0.65±0.14 units used per kg body weight.

And the “Mean Plasma Glucose Concentrations, Pre-bedtime, Treatment” value (patients with IDDM [3]; [6])?
The value was 171 ± 51 mg/dL.

And the “Mean Plasma Glucose Concentrations, Pre-breakfast, Treatment” value (patients with IDDM [3]; [6])?
The value was 176 ± 39 mg/dL.

And the “Mean Plasma Glucose Concentrations, Pre-dinner, Treatment” value (patients with IDDM [3]; [6])?
The value was 199 ± 47 mg/dL.

What about the “Mean Plasma Glucose Concentrations, Pre-lunch, Treatment” value (patients with IDDM [3]; [6]) of the same substance?
Its value is 142 ± 56 mg/dL.

What about the “mean reduction of HbA1 during the treatment period” value (patients with IDDM [3]; rhIGF-I 80 μg/kg SC q a.m. plus regular and NPH insulin, 4 weeks) of the same substance?
The value was 1.8±1.25%.

What about the “average amount of regular insulin used” value (patients with IDDM [3]; treatment phase) of the same substance?
Its value is 0.20±0.10 insulin units used daily per kg of body weight.

What about the “free IGF-I level compared with corresponding Tanner stage placebo group” value [4] of the same substance?
The value was “higher”.

What about the body weight (patients with IDDM [5]; day 28 of treatment) of the same substance?
Its body weight is 55 ± 17 kg.

And the “biochemical, lipid, and thyroid profiles” value (patients with IDDM [5]; throughout the duration of the study)?
Its value is “remained within normal limits”.

And the “median amount of hypoglycemic episodes” value (patients with IDDM [5]; treatment period, BG equal to or lower than 50 mg/dL)?
The value was 6.
